Test results published in the supplement of paper PMC10307832.

How the values were obtained:
Assay in all cases: relative viability (nuclei count vs DMSO), 5 days (fraction); higher = more cells survive
[1] = compound: CCn1c(-c2nonc2N)nc2cnc(Oc3cccc(NC(=O)c4ccc(OCCN5CCOCC5)cc4)c3)cc21 + Cc1nc(NC(=O)N2CCC[C@H]2C(N)=O)sc1-c1ccnc(C(C)(C)C(F)(F)F)c1 [Alpelisib] (partner 2 µM)
Procedure, shortened: (§1)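 Relative viability divides the nuclei count in treated wells by that in vehicle wells. Lung cancer cell lines were seeded in 1536-well plates, dosed by pin tool the next day, and fixed and stained after 5 days in one step with final 0.05% Triton X-100, 1% formaldehyde and 1 ug/ml Hoechst. Dosing was a single drug or a fixed anchor-drug dose plus five library-drug doses (not always all listed) in √10 steps, and values are medians of duplicate plates imaged at 4×.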

[2] = compound: CCn1c(-c2nonc2N)nc2cnc(Oc3cccc(NC(=O)c4ccc(OCCN5CCOCC5)cc4)c3)cc21 + CC(=O)Nc1cccc(-n2c(=O)n(C3CC3)c(=O)c3c(Nc4ccc(I)cc4F)n(C)c(=O)c(C)c32)c1 [Trametinib] (partner 0.02 µM)
Procedure, shortened: as §1

[3] = compound: CCC1=CN=CN=C1N2CCN(CC2)CC3=NC4=C(N3)C=C(C=C4)C(F)(F)F + CC(=O)c1c(C)c2cnc(Nc3ccc(N4CCNCC4)cn3)nc2n(C2CCCC2)c1=O [Palbociclib] (partner 0.5 µM)
Procedure, shortened: as §1

[4] = compound: N=C1NC(=O)/C(=C/c2ccc(O)cc2)S1 [Mirin] + CCNC(=O)c1noc(-c2cc(C(C)C)c(O)cc2O)c1-c1ccc(CN2CCOCC2)cc1 [Luminespib] (partner 0.01 µM)
Procedure, shortened: as §1

Row | Cell Line | relative viability ([1]; first compound 0.04 µM) | relative viability ([1]; first compound 0.1265 µM) | relative viability ([1]; first compound 0.4 µM) | relative viability ([1]; first compound 1.265 µM) | relative viability ([1]; first compound 4 µM) | relative viability ([2]; first compound 0.04 µM) | relative viability ([2]; first compound 0.1265 µM) | relative viability ([2]; first compound 0.4 µM) | relative viability ([2]; first compound 1.265 µM) | relative viability ([2]; first compound 4 µM) | relative viability ([3]; first compound 0.04 µM) | relative viability ([3]; first compound 0.1265 µM) | relative viability ([3]; first compound 0.4 µM) | relative viability ([3]; first compound 4 µM) | relative viability ([4]; first compound 0.25 µM) | relative viability ([4]; first compound 0.7906 µM) | relative viability ([4]; first compound 2.5 µM) | relative viability ([4]; first compound 7.906 µM) | relative viability ([4]; first compound 25 µM) | relative viability ([3]; first compound 1.265 µM)
1 | NCI-H2405 | 0.893 | 0.425 | 0.368 | 0.326 | 0.274 | 0.537 | 0.385 | 0.311 | 0.253 | 0.26 | 0.578 | 0.53 | 0.513 | 0.594 | 0.624 | 0.586 | 0.664 | 0.702 | 0.649 | –
2 | HCC-44 | 0.816 | 0.896 | 0.659 | 0.456 | 0.344 | 1.06 | 1.12 | 1.04 | 1.05 | 1.03 | 0.965 | 0.956 | 0.991 | 0.859 | 0.968 | 1.19 | 0.805 | 0.939 | 1.05 | 0.937
3 | HCC-78 | 0.494 | 0.336 | 0.429 | 0.487 | 0.455 | 0.796 | 0.469 | – | 0.847 | 1.06 | 0.447 | 0.461 | 0.477 | 0.468 | – | – | – | – | – | 0.451
4 | COR-L23 | 0.681 | 0.647 | 0.446 | 0.154 | 0.159 | 0.647 | 0.517 | 0.248 | 0.192 | 0.16 | 0.234 | 0.298 | 0.259 | 0.282 | 0.763 | 0.726 | 0.609 | 0.626 | 0.499 | 0.254
5 | NCI-H1993 | 0.758 | 0.77 | – | 0.719 | 0.668 | 0.441 | 0.427 | 0.464 | 0.439 | 0.509 | 0.661 | 0.586 | 0.622 | 0.654 | 0.777 | – | 0.778 | 0.729 | 0.734 | 0.586
6 | NCI-H3122 | 0.831 | 0.885 | 0.782 | 0.729 | 0.82 | 0.175 | 0.189 | 0.254 | 0.226 | 0.247 | 0.176 | 0.226 | 0.207 | 0.172 | 0.0805 | 0.0865 | 0.0952 | 0.0621 | 0.0807 | 0.172
7 | NCI-H2228 | 1.14 | 0.998 | 0.776 | 0.732 | 0.644 | 0.558 | 0.495 | 0.345 | 0.349 | 0.362 | – | 0.595 | 0.684 | 0.877 | 0.144 | 0.166 | 0.159 | 0.129 | 0.114 | 0.472
8 | NCI-H1944 | 0.934 | 0.809 | – | 0.781 | 0.789 | 0.409 | 0.365 | 0.441 | 0.467 | 0.359 | 0.399 | 0.358 | 0.298 | 0.303 | 0.679 | 0.751 | 0.694 | 0.543 | 0.359 | 0.309
9 | NCI-H2342 | – | – | – | – | – | 0.803 | 0.85 | 0.989 | 0.621 | 0.801 | 0.569 | 0.514 | 0.511 | 0.477 | 0.671 | 0.815 | 0.753 | 0.592 | 0.7 | 0.463
10 | NCI-H358 | 1.01 | 1.04 | 0.792 | 0.65 | 0.42 | 0.14 | 0.161 | 0.115 | 0.129 | 0.113 | 0.135 | 0.136 | 0.121 | 0.141 | 0.562 | 0.408 | 0.502 | 0.36 | 0.413 | 0.128
11 | NCI-H1734 | 0.802 | 0.708 | 0.513 | 0.571 | 0.402 | 0.676 | 0.729 | 0.69 | 0.603 | 0.467 | 0.33 | 0.362 | 0.344 | 0.317 | 0.191 | 0.182 | 0.21 | 0.208 | 0.217 | 0.291
12 | ABC-1 | 1.35 | 0.691 | 0.877 | 0.877 | 0.487 | – | – | – | – | – | – | – | 0.543 | 0.547 | 0.746 | 0.879 | 0.73 | 0.534 | 0.341 | 0.628
13 | NCI-H1563 | 0.96 | 0.878 | 0.825 | 0.766 | 0.712 | – | – | – | – | – | – | – | – | – | 0.54 | 0.6 | 0.476 | 0.589 | 0.5 | –
14 | HCC-366 | 0.462 | 0.429 | 0.21 | 0.0494 | 0.031 | 0.335 | 0.334 | 0.322 | 0.0755 | 0.0555 | 0.319 | 0.328 | 0.321 | 0.383 | – | – | – | – | – | 0.34
15 | NCI-H522 | – | – | – | – | – | 0.739 | 0.705 | 0.652 | 0.629 | 0.751 | 1.02 | 1.11 | 0.956 | 0.916 | 0.884 | 1.11 | 1.23 | 0.875 | 0.801 | 0.818
16 | SW 900 | – | – | – | – | – | 0.602 | 0.802 | 0.828 | 0.918 | 0.849 | 0.463 | 0.497 | 0.412 | 0.556 | 0.164 | 0.178 | 0.206 | 0.174 | 0.154 | –
17 | EBC-1 | 1.02 | 0.767 | 0.678 | 0.733 | 0.557 | – | – | – | – | – | – | – | – | – | – | – | – | – | – | –
18 | NCI-H1650 | – | – | – | – | – | 0.668 | 0.543 | 0.52 | 0.37 | 0.496 | 0.325 | 0.311 | 0.348 | 0.39 | 0.183 | 0.176 | 0.175 | 0.18 | 0.179 | 0.223
19 | IA-LM | 1.17 | 0.929 | 0.871 | 0.825 | 0.687 | – | – | – | – | – | – | – | – | – | – | – | – | – | – | –
20 | NCI-H1703 | 0.385 | 0.428 | 0.254 | 0.209 | 0.164 | – | – | – | – | – | – | – | – | – | – | – | – | – | – | –
21 | NCI-H596 | 0.482 | 0.51 | 0.612 | 0.49 | 0.55 | 0.797 | 0.804 | 0.825 | 0.555 | 0.657 | – | – | – | – | 0.931 | 0.984 | 1.06 | 0.955 | 0.905 | –
